# Measurements from patent US9187453B2, “Heterocyclic compound” (Takeda Pharmaceutical Company Limited, priority 2012, dated 2015).
# Where a name gives a salt, the structure may show the parent alone.
# System: IL-23
# Test: IL-23-induced IL-22 in rat auricle tissue
# Type: in vivo
# Details: 10 mg/kg, q.d., oral, 30 min before intradermal mouse IL-23 into right auricle; IL-22 in auricle tissue by ELISA about 24 hr later; mean of n=6
# Description: Recombinant mouse IL-23 (1 μg/20 μL/site) was intradermally administered into the right auricle of 7-8-week-old LEWEIS male rat. As control, phosphate buffered saline (PBS) which is a solvent was administered instead of IL-23. Then, a drug (the compound of Example 103) suspended in 0.5% methyl cellulose (MC) was orally administered 30 min before IL-23 administration, respectively. 0.5% MC was used as vehicle. The auricle tissues of 6 mm diameter were collected about 24 hr after IL-23 administration. Lysis buffer was added thereto, the tissues were crushed using beads, and centrifugalized, and the supernatant was collected. IL-22 in the tissues was measured using ELISA kit (R & D Systems). The result is shown below as a IL-23 inhibitory rate relative to vehicle. (mean of n=6)
row,Compound,IL-23 inhibitory rate relative to vehicle [%]
1,"CC(C)(CO)n1cc(Nc2nccc(N3CC[C@@](C#N)(C4CC4)C3=O)n2)cn1 [Example 103, (3S)-3-cyclopropyl-1-(2-((1-(1-hydroxy-2-methylpropan-2-yl)-1H-pyrazol-4-yl)amino)pyrimidin-4-yl)-2-oxopyrrolidine-3-carbonitrile]",79

# Target: T1, Tyk2 (Homo sapiens, UniProt P29597)
# T1 construct: purchased Invitrogen
# Test: Tyk2 enzyme inhibition test (LANCE method)
# Type: biochemical
# Details: compound 1 μM; Tyk2 (Invitrogen), ULight-JAK1 substrate, ATP; well without enzyme = 100% inhibition; read-out: Tyk2 enzyme inhibitory activity (%, 1 μM)
# Description: Tyk2 enzyme inhibitory activity of test compounds was measured by LANCE method (PerkinElmer). First, a test compound diluted with assay buffer (50 mM HEPES (pH=7.5), […], 1 mM EGTA, 2 mM DTT, 0.01% Tween20, 0.01% BSA) was added to 384-well plate at 2 μL each. Then, a Tyk2 (Invitrogen) solution and a fluorescence-labeled peptide substrate (ULight-JAK1, PerkinElmer) solution diluted with assay buffer at 375 ng/mL and 300 nM, respectively were added at 2 μL each. Then, enzyme reaction was started by adding 2 μL each of ATP solution prepared with assay buffer at 30 μM. After the reaction at room temperature for 1 hr, Detection Buffer (PerkinElmer) prepared to be 20 mM EDTA, 4 nM europium-labeled anti-phosphotyrosine antibody (PerkinElmer) was added at 6 μL each. After standing at room temperature for 1 hr, fluorescence intensity (excitation wavelength 340 nm, fluorescence wavelength 665 nm, delay time 100 microsecond) was measured by a plate reader, Envision (PerkinElmer). The inhibitory activity of each compound was calculated as relative value where fluorescence intensity of a well without enzyme is considered as 100% inhibition.
# T1 sequence (P29597 whole entry): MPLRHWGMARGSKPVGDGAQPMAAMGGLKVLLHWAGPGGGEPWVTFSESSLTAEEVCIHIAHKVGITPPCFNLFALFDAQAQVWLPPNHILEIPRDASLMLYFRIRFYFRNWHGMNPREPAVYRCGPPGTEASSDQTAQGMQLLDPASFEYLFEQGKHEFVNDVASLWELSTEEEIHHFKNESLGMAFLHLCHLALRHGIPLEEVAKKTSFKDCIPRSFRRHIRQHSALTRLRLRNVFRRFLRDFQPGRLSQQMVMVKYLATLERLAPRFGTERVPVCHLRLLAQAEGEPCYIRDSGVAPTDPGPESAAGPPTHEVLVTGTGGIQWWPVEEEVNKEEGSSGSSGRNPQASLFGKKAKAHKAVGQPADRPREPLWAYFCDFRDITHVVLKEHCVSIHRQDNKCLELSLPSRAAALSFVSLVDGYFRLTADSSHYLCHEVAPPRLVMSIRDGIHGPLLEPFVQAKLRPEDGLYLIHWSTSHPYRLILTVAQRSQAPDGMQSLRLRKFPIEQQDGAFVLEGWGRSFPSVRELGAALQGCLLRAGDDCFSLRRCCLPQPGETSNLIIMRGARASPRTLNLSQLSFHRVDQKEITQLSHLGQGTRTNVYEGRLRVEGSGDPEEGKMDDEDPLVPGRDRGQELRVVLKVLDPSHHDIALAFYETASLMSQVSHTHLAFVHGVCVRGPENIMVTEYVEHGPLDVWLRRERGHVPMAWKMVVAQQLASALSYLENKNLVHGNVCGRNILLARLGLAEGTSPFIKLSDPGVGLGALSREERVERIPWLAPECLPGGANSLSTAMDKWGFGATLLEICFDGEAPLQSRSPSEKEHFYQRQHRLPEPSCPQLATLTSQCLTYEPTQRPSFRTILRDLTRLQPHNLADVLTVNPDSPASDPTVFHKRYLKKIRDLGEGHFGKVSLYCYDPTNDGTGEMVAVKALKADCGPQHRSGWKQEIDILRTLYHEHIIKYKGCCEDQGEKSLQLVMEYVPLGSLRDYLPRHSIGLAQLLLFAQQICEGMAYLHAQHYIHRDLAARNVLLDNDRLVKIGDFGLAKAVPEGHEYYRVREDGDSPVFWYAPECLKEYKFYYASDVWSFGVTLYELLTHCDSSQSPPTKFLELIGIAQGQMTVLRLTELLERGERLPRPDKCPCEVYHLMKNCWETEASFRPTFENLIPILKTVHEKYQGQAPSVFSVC
row,Compound,inhibition at 1 µM [%]
1,"CC[C@]1(C#N)CCN(c2ccnc(Nc3ccc(N4CCOCC4)cc3)n2)C1=O [Example 4, (3R)-3-ethyl-1-(2-((4-(morpholin-4-yl)phenyl)amino)pyrimidin-4-yl)-2-oxopyrrolidine-3-carbonitrile]",100
2,"CC(C)[C@]1(C#N)CCN(c2ccnc(Nc3ccc(N4CCOCC4)cc3)n2)C1=O [Example 7, (3S)-3-isopropyl-1-(2-((4-(morpholin-4-yl)phenyl)amino)pyrimidin-4-yl)-2-oxopyrrolidine-3-carbonitrile]",100
3,"CCC1(CC)CCN(c2ccnc(Nc3cnn(C)c3)n2)C1=O [Example 10, 3,3-diethyl-1-(2-((1-methyl-1H-pyrazol-4-yl)amino)pyrimidin-4-yl)pyrrolidin-2-one hydrochloride]",97
4,"Cn1cc(Nc2nccc(N3CCCC3=O)n2)cn1 [Example 12, 1-(2-((1-methyl-H-pyrazol-4-yl)amino)pyrimidin-4-yl)pyrrolidin-2-one]",51
5,"CCC1(CC)CCN(c2ccnc(Nc3ccccc3)n2)C1=O [Example 15, 1-(2-anilinopyrimidin-4-yl)-3,3-diethylpyrrolidin-2-one]",89
6,"Cn1cc(Nc2ncc(F)c(N3CCC(C)(C)C3=O)n2)cn1 [Example 29, 1-(5-fluoro-2-((1-methyl-1H-pyrazol-4-yl)amino)pyrimidin-4-yl)-3,3-dimethylpyrrolidin-2-one]",91
7,"CCC1(CC)CC(C)N(c2ccnc(Nc3cnn(C)c3)n2)C1=O (centres unmarked) [Example 33, 3,3-diethyl-5-methyl-1-(2-((1-methyl-1H-pyrazol-4-yl)amino)pyrimidin-4-yl)pyrrolidin-2-one hydrochloride]",97
8,"CCC1(C#N)CCN(c2ccnc(NCc3ccc(C#N)cc3)n2)C1=O (centres unmarked) [Example 61, 1-(2-((4-cyanobenzyl)amino)pyrimidin-4-yl)-3-ethyl-2-oxopyrrolidine-3-carbonitrile]",14
9,"CCC1(C#N)CCN(c2ccnc(NCc3ccco3)n2)C1=O (centres unmarked) [Example 72, 3-ethyl-1-(2-((2-furylmethyl)amino)pyrimidin-4-yl)-2-oxopyrrolidine-3carbonitrile]",20
10,"CCC1(C#N)CCN(c2ccnc(NCC3CC3)n2)C1=O (centres unmarked) [Example 77, 1-(2-((cyclopropylmethyl)amino)pyrimidin-4-yl)-3-ethyl-2-oxopyrrolidine-3-carbonitrile]",22
11,"Cn1cc(Nc2nccc(N3CCCC(C)(C)C3=O)n2)cn1 [Example 101, 3,3-dimethyl-1-(2-((1-methyl-1H-pyrazol-4-yl)amino)pyrimidin-4-yl) piperidin-2-one hydrochloride]",88
12,"CC(C)(CO)n1cc(Nc2nccc(N3CC[C@@](C#N)(C4CC4)C3=O)n2)cn1 [Example 103, (3S)-3-cyclopropyl-1-(2-((1-(1-hydroxy-2-methylpropan-2-yl)-1H-pyrazol-4-yl)amino)pyrimidin-4-yl)-2-oxopyrrolidine-3-carbonitrile]",100
13,"CC(C)(C(N)=O)n1cc(Nc2nccc(N3CC[C@@](C#N)(C4CC4)C3=O)n2)cn1 [Example 109, 2-(4-((4-((3S)-3-cyano-3-cyclopropyl-2-oxopyrrolidin-1-yl)pyrimidin-2-yl)amino)-1H-pyrazol-1-yl)-2-methylpropanamide hydrochloride]",99
14,"N#C[C@@]1(C2CC2)CCN(c2ccnc(Nc3cnn(C4(CO)CC4)c3)n2)C1=O [Example 128, (3S)-3-cyclopropyl-1-(2-((1-(1-(hydroxymethyl)cyclopropyl)-1H-pyrazol-4-yl)amino)pyrimidin-4-yl)-2-oxopyrrolidine-3-carbonitrile]",100

# Second part, the compound after the results:
row,inhibition at 1 µM [%],Compound
1,99,"CCC1(C#N)CCN(c2ccnc(Nc3cnn(C)c3)n2)C1=O (centres unmarked) [Example 1, 3-ethyl-1-(2-((1-methyl-1H-pyrazol-4-yl)amino)pyrimidin-4-yl)-2-oxopyrrolidine-3-carbonitrile]"
2,98,"CCC1(CC#N)CCN(c2ccnc(Nc3cnn(C)c3)n2)C1=O (centres unmarked) [Example 31, (3-ethyl-1-(2-((1-methyl-1H-pyrazol-4-yl)amino)pyrimidin-4-yl)-2-oxopyrrolidin-3-yl)acetonitrile]"
3,100,"CC(C)[C@]1(C#N)CCN(c2ccnc(Nc3cnn(CC(N)=O)c3)n2)C1=O [Example 85, 2-(4-((4-((3S)-3-cyano-3-isopropyl-2-oxopyrrolidin-1-yl)pyrimidin-2-yl)amino)-1H-pyrazol-1-yl)acetamide hydrochloride]"
4,100,"CNC(=O)Cn1cc(Nc2nccc(N3CC[C@@](C#N)(C(C)C)C3=O)n2)cn1 [Example 86, 2-(4-((4-((3S)-3-cyano-3-isopropyl-2-oxopyrrolidin-1-yl)pyrimidin-2-yl)amino)-1H-pyrazol-1-yl)-N-methylacetamide hydrochloride]"
5,100,"CC(C)[C@]1(C#N)CCN(c2ccnc(Nc3cnn(CC(=O)N(C)C)c3)n2)C1=O [Example 87, 2-(4-((4-((3S)-3-cyano-3-isopropyl-2-oxopyrrolidin-1-yl)pyrimidin-2-yl)amino)-1H-pyrazol-1-yl)-N,N-dimethylacetamide hydrochloride]"
6,24,"CNC(=O)Cn1cc(Nc2nccc(N3CC[C@](C#N)(C4CC4)C3=O)n2)cn1 [Example 133, 2-(4-((4-((3R)-3-cyano-3-cyclopropyl-2-oxopyrrolidin-1-yl)pyrimidin-2-yl)amino)-1H-pyrazol-1-yl)-N-methylacetamide hydrochloride]"
7,99,"CNC(=O)Cn1cc(Nc2nccc(N3CC[C@@](C#N)(C4CC4)C3=O)n2)cn1 [Example 134, 2-(4-((4-((3S)-3-cyano-3-cyclopropyl-2-oxopyrrolidin-1-yl)pyrimidin-2-yl)amino)-1H-pyrazol-1-yl)-N-methylacetamide hydrochloride]"
8,99,"CC(C)[C@]1(C#N)CCN(c2ccnc(Nc3cnn(CCC(=O)N(C)C)c3)n2)C1=O [Example 265, 3-(4-((4-((3S)-3-cyano-3-isopropyl-2-oxopyrrolidin-1-yl)pyrimidin-2-yl)amino)-1H-pyrazol-1-yl)-N,N-dimethylpropanamide]"
